Measured values as given in patent US4581354A, “3-arylcarbonyl- and 3-cycloalkylcarbonyl-1-aminoalkyl-1H-indoles, compositions and use” (Sterling Drug Inc., priority 1985, dated 1986).
Read-outs that look alike come from different tables or passages of the source.

What was measured:
[1] = tested on: acetylcholine-induced abdominal constriction; assay: animal or person; format: in vivo, mice
bradykinin = assay: anti-bradykinin test (BRDK); format: in vivo; conditions: for inhibition in vivo at 50 mg/kg: 50 mg./kg. oral; for inhibition in vivo at 200 mg/kg: 200 mg./kg. oral
Source text: The test procedures used to determine the analgesic activities of the compounds have been described in detail in the prior art and are as follows: The acetylcholine-induced abdominal constriction test, which is a primary analgesic screening test designed to measure the ability of a test agent to suppress acetylcholine-induced abdominal constriction in mice, described by Collier et al., Brit. J. Pharmacol. Chemotherap. 32, 295 (1968); a modification of the anti-bradykinin test, which is also a primary analgesic screening procedure, described by Berkowitz et al., J. Pharmacol. Exptl. Therap. 177, 500-508 (1971), Blane et al., J. Pharm. Pharmacol. 19, 367-373 (1967), Botha et al., Eur. J. Pharmacol. 6, 312-321 (1969) and Deffenu et al., J. Pharm. Pharmacol. 18, 135 (1966); and the rat paw flexion test, described by Kuzuna et al., Chem. Pharm. Bull., 23, 1184-1191 (1975), Winter et al., J. Pharm. Exptl. Therap., 211, 678-685 (1979) and Capetola et al., J. Pharm. Exptl. Therap. 214, 16-23 (1980).
Unless noted otherwise, all data were obtained on oral administration and are expressed either as the ED50 or as the percent inhibition at a given dose level (thus 30/100 or 30% inhibition at […].)
In some instances, the compounds were retested two or more times, and ED50 values were calculated for each series of repeat tests. In such instances, each of the ED50 values so-obtained is given in a series of values, thus 6, 28, 30, 43 in the case of the species of Example 1AW in the acetylcholine-induced abdominal constriction test.

[2] = Mus musculus, po, read-out: Ach ED50
[3] = read-out: BRDK percent inhibition
[4] = Mus musculus, iv, read-out: Ach ED50
[5] = Mus musculus, po, 100 mg./kg. oral, read-out: Ach percent inhibition
[6] = Mus musculus, po, 100 mg./kg. oral, Table D, formula II intermediates (Preparations), read-out: Ach percent inhibition

For `COc1ccc(C(=O)c2cn(CCN3CCOCC3)c3ccccc23)cc1.CS(=O)(=O)O.O` [Example 1A, 3-(4-methoxybenzoyl)-1-[2-(4-morpholinyl)ethyl]-1H-indole methanesulfonate monohydrate], the ED50 [1, 2] was 73 mg/kg and the ED50 (bradykinin; po) was 56 mg/kg.
In the case of `O=C(c1ccccc1)c1cn(CCN2CCOCC2)c2ccccc12` [Example 1AP], the ED50 [1, 2] is reported as 42 mg/kg, the inhibition in vivo at 50 mg/kg (bradykinin; [3]) is reported as 0% and the inhibition in vivo at 200 mg/kg (bradykinin; [3]) is reported as 33%. For the same molecule, the inhibition in vivo at 400 mg/kg (bradykinin; 400 mg./kg. oral, read-out: BRDK percent inhibition) was 60%.
In the case of `Cc1c(C(=O)c2cccs2)c2ccccc2n1CCN1CCOCC1` [Example 1AT], the ED50 [1, 2] is reported as 30 mg/kg, the inhibition in vivo at 50 mg/kg (bradykinin; [3]) is reported as 0% and the inhibition in vivo at 200 mg/kg (bradykinin; [3]) is reported as 0%.
`COc1ccc2c(C(=O)c3ccc(Cl)cc3)c(C)n(CCN3CCOCC3)c2c1` [Example 1AU] showed an ED50 [1, 2] of 42 mg/kg and an inhibition in vivo at 50 mg/kg (bradykinin; [3]) of 0%.
`COc1ccc2c(C(=O)c3cccs3)c(C)n(CCN3CCOCC3)c2c1` [Example 1AV] was tested, and the ED50 [1, 2] was 38 mg/kg and the inhibition in vivo at 50 mg/kg (bradykinin; [3]) was 0%.
For `Cc1c(C(=O)c2ccccc2)c2ccccc2n1CC(C)N1CCOCC1` (stereo not drawn) [Example 1AX], the ED50 [1, 2] was 45 mg/kg and the inhibition in vivo at 212 mg/kg (bradykinin; 212 mg./kg. oral, read-out: BRDK percent inhibition) was 0%.
For `COc1ccc(C(=O)c2c(C)n(CCN3CCOCC3)c3ccccc23)cc1` [Example 1B, 2-methyl-3-(4-methoxybenzoyl)-1-[2-(4-morpholinyl)ethyl]-1H-indole], the ED50 [1, 4] was 6.7 mg/kg and the ED50 (bradykinin; iv) was 8.1 mg/kg.
`COc1ccc(C(=O)c2c(C)n(CCN3CCOCC3)c3ccccc23)c2ccccc12` [Example 1BI] gave an ED50 [1, 4] of 0.69 mg/kg, an inhibition in vivo at 300 mg/kg ([1]; Mus musculus, po, 300 mg./kg. oral, read-out: Ach percent inhibition) of 13% and an inhibition in vivo at 100 mg/kg ([1]; Mus musculus, sc, 100 mg./kg. s.c., read-out: Ach percent inhibition) of 27%. It also gave an inhibition in vivo at 6 mg/kg (bradykinin; 6 mg./kg. oral, read-out: BRDK percent inhibition) of 0%.
`COc1ccc(C(=O)c2c(C)n(CC(O)CN3CCOCC3)c3ccccc23)cc1` (stereo not drawn) [Example 31G] was tested, and the ED50 [1, 2] was 133 mg/kg.
With `COc1ccc(C(=O)c2c(C)n(CC(O)CN3CCCC3)c3ccccc23)cc1` (stereo not drawn) [Example 31H] the inhibition in vivo at 10 mg/kg ([1]; Mus musculus, iv, 10 mg./kg. i.v., read-out: Ach percent inhibition) was 80% and the ED50 [1, 2] was 56 mg/kg.
Work on `COc1ccc(C(=O)c2c(C)n(CC(O)CN=[N+]=[N-])c3ccccc23)cc1` (stereo not drawn) [Example 31J, 1-(3-azido-2-hydroxy-1-propyl)-2-methyl-3-(4-methoxybenzoyl)-1H-indole] yielded an inhibition in vivo at 100 mg/kg [1, 5] of 10%.
`COc1ccc(C(=O)c2c(C)n(CC(O)CN3CCC3)c3ccccc23)cc1` (stereo not drawn) [Example 31K] gave an ED50 [1, 2] of 28 mg/kg.
`COc1ccc(C(=O)c2c(C)n(CC(O)CN(C)C)c3ccccc23)cc1` (stereo not drawn) [Example 31L] gave an ED50 [1, 2] of 32 mg/kg.
Work on `COc1ccc(C(=O)c2c(C)n(CC(O)CNC(C)C)c3ccccc23)cc1` (stereo not drawn) [Example 31M] yielded an ED50 [1, 2] of 26 mg/kg.
Work on `CCNCC(O)Cn1c(C)c(C(=O)c2ccc(OC)cc2)c2ccccc21` (stereo not drawn) [Example 31N] yielded an inhibition in vivo at 100 mg/kg [1, 5] of 90%.
`COc1ccc(C(=O)c2c(C)n(CC(O)CN)c3ccccc23)cc1` (stereo not drawn) [Example 32, 1-(3-amino-2-hydroxy-1-propyl)-2-methyl-3-(4-methoxybenzoyl)-1H-indole] gave an ED50 [1, 2] of 85 mg/kg.
For `Cc1[nH]c2ccccc2c1C(=O)c1ccccc1-c1ccccc1` [Preparation 1AK], the inhibition in vivo at 100 mg/kg [1, 6] was 20%.
In the case of `Cc1[nH]c2ccccc2c1C(=O)c1ccc(-c2ccccc2)cc1` [Preparation 1AL], the inhibition in vivo at 100 mg/kg [1, 6] is reported as 20%.
`COc1cc(OC)cc(C(=O)c2c(C)[nH]c3ccccc23)c1` [Preparation 1AO] gave an inhibition in vivo at 100 mg/kg [1, 6] of 40%.
In the case of `COc1ccc(C(=O)c2c(C)[nH]c3ccc(F)cc23)cc1` [Preparation 1F, 2-methyl-5-fluoro-3-(4-methoxybenzoyl)indole], the inhibition in vivo at 100 mg/kg [1, 6] is reported as 0%.
For `CS(=O)(=O)O.Cc1cc2ccccc2n1C(C)CN1CCOCC1.O` (stereo not drawn) [Preparation 5A, 2-methyl-1-[1-methyl-2-(4-morpholinyl)ethyl]-1H-indole methanesulfonate hydrate], the “inhibition in acetylcholine-induced abdominal constriction test” value ([1]; 300 mg./kg. (p.o.), Preparations) was 40%.
Molecule `Cc1cc2cc(F)ccc2n1C(C)CN(C)C` (stereo not drawn) [Preparation 8, 5-fluoro-2-methyl-1-(1-methyl-2-dimethylaminoethyl)-1H-indole] has an ED50 ([1]; Mus musculus, po, Preparations, read-out: ED50 in acetylcholine-induced abdominal constriction test) of 25 mg/kg.
